Where a name gives a salt, the structure may show the parent alone.
system: MTT (mouse pheochromocytoma); assay: IC50 of cell viability (ATP content); conditions: (24 or 48 h)
Method in brief: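 Each well of a white 1536-well plate received 5 µl of MTT mouse pheochromocytoma cells at 200,000 cells/ml in DMEM containing 5% FBS and 1% horse serum. After overnight culture at 37°C, 5% CO2, cells were exposed for 24 or 48 hrs to 23 nl of library compound in DMSO, pinned at 8 final concentrations from 0.5 nM to 46 µM. CellTiter-Glo luminescence was read after 15 minutes, and IC50 was obtained from a four-parameter logistic fit of signals normalised to positive-control and DMSO wells.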

Row | SMILES | IC50 of cell viability [µM]
1 | COc1ccc(/C=N/NC(=O)c2ccncc2)c(C(=O)O)c1OC [Opiniazida] | > 46
2 | CN(CCOc1ccc(NS(C)(=O)=O)cc1)CCc1ccc(NS(C)(=O)=O)cc1 [Dofetilide] | > 46
3 | O=S(=O)([O-])OCC1OC(OC2(COS(=O)(=O)[O-])OC(COS(=O)(=O)[O-])C(OS(=O)(=O)[O-])C2OS(=O)(=O)[O-])C(OS(=O)(=O)[O-])C(OS(=O)(=O)[O-])C1OS(=O)(=O)[O-] (configuration not stated) [Sucrose Octasulfate, Sodium Salt] | > 46
4 | CN(C)CCCN1c2ccccc2CCc2ccccc21 [IMIPRAMINE] | > 46
5 | C=CCC1(C(C)CCC)C(=O)NC(=O)NC1=O (stereo not drawn) [R-(+)-Secobarbital] | > 46
6 | CC(C)(C)C(O)C(Oc1ccc(Cl)cc1)n1cncn1 (configuration not stated) [Triadimenol] | > 46
7 | Nc1ccc([N+](=O)[O-])cc1O [2-Amino-5-nitrophenol] | > 46
8 | Nc1nc(N)c2nc(CNc3ccc(C(=O)NC(CCC(=O)O)C(=O)O)cc3)cnc2n1 (configuration not stated) [AMINOPTERIN] | > 46
9 | O=NN(CCCl)C(=O)NCCCl [Carmustine] | > 46
10 | Cc1c(N)nc([C@@H](CC(N)=O)NC[C@H](N)C(N)=O)nc1C(=O)N[C@H](C(=O)N[C@H](C)[C@H](O)[C@H](C)C(=O)N[C@@H](C(=O)NCCc1nc(-c2nc(C(=O)NCCC[S+](C)C)cs2)cs1)[C@H](C)O)[C@H](O[C@@H]1O[C@@H](CO)[C@@H](O)[C@H](O)[C@@H]1O[C@H]1O[C@H](CO)[C@H](O)[C@H](OC(N)=O)[C@@H]1O)c1c[nH]cn1 [Bleomycin Sulfate] | > 46
11 | CCCN(CCC)[S+](=O)([O-])c1ccc(C(=O)O)cc1 [Probenecid] | > 46
12 | COc1cc2c(c(OC)c1OC)-c1c(cc3c(c1OC)OCO3)CC(C)C(C)(O)C2 (configuration not stated) [Gomisin A] | > 46
13 | O=C(Nc1ccccc1)OC[C@H](CN1CCCCC1)OC(=O)Nc1ccccc1 [Diperodon hydrochloride] | > 46
14 | CCCCCCCCCCCC(=O)N(CCO)CCO [LAURIC DIETHANOLAMIDE] | > 46
15 | NCCN.[Cl-].[Cl-].[Pt+2] [Dichloro(ethylenediamine)platinum(II)] | > 46
16 | CC[C@H](NC(C)C)[C@H](O)c1ccc(O)c(O)c1.C[S+](=O)([O-])O [Isoetharine mesylate salt] | > 46
17 | NCCCC(O)(P(=O)(O)O)P(=O)(O)O [Alendronate sodium] | > 46
18 | C=C1CCC(O)C/C1=C/C=C1\CCC[C@]2(C)[C@@H]([C@H](C)/C=C/[C@H](C)C(C)C)CC[C@@H]12 (some centres not stated) [ERGOCALCIFEROL] | > 46
19 | O=C([O-])CCC/C=C\C[C@@H]1[C@@H](/C=C/[C@@H](O)COc2cccc(Cl)c2)[C@H](O)C[C@@H]1O [CLOPROSTENOL SODIUM] | > 46
20 | CCCCCCC(=O)O[C@H]1CC[C@H]2[C@@H]3CCC4CC(=O)\C=C(C)/[C@]4(C)[C@H]3CC[C@]12C (some centres not stated) [METENOLONE ENANTHATE] | > 46
21 | CCN(CC)CCOC(=O)C1(c2ccccc2)CCCC1 [CARAMIPHEN EDISYLATE] | > 46
22 | C[C@H]1CN(C2CCC(C#N)(c3ccc(F)cc3)CC2)CC[C@@]1(C(=O)O)c1ccccc1 (some centres not stated) [Levocabastine hydrochloride] | > 46
23 | CO/N=C(/C(=O)N[C@@H]1C(=O)N2C(C(=O)OC(C)OC(C)=O)=C(COC(N)=O)CS[C@H]12)c1ccco1 (some centres not stated) [CEFUROXIME AXETIL] | > 46

Row | SMILES | IC50 of cell viability [µM]
24 | CC(C)[C@@H](N)C(=O)O [VALINE] | > 46
25 | CN1CCN(C2=Nc3ccccc3Sc3ccc(Cl)cc32)CC1 [Clothiapine] | > 46
26 | Cc1cccc(C)c1NC(=O)CN1CCCCCC1 [PINCAINIDUM] | > 46
27 | c1ccc2c(c1)sc1ccccc12 [DIBENZOTHIOPHENE] | > 46
28 | CC(c1ncncc1F)[C@](O)(Cn1cncn1)c1ccc(F)cc1F (some centres not stated) [Voriconazole] | > 46
29 | CO[C@@]1(NC(=O)[C@@H]2S\C(S2)=C(\C(N)=O)C(O)=O)[C@@H]3SC\C(=C(/N3C1=O)C(O)=O)CSC4=NN=N[N]4C (some centres not stated) [Cefotetan] | > 46
30 | O=C([O][Na])C(Cl)Cl [DCA] | > 46
31 | O=C(Nc1ccc([S+](=O)([O-])N2CCOCC2)cc1)c1cc(Cl)ccc1N[S+](=O)([O-])c1ccc(Cl)s1 [Ataciguat] | > 46
32 | CC1(C)\N=C(N)/N=C(/N)N1C2=CC=C(Cl)C=C2 [Cycloguanil HCl] | > 46
33 | CCON=O [SWEET SPIRITS OF NITRE] | > 46
34 | Cc1cc(-n2c(=O)[nH]c(=O)n(C)c2=O)ccc1Oc1ccc([S+](=O)([O-])C(F)(F)F)cc1 [Toltrazuril sulfone] | > 46
35 | CCC(C)(Oc1ccc(C2(c3ccc(OC(C)(CC)C(=O)O)cc3)CCCCC2)cc1)C(=O)O (configuration not stated) [CLINOFIBRATE] | > 46
36 | Nc1ncnc2c1ncn2[C@@H]1O[C@H](COP(=O)(O)OP(=O)(O)OP(=O)(O)O)[C@@H](O)[C@H]1O [ADENOSINE TRIPHOSPHATE] | > 46
37 | CCCOC(=O)c1ccccc1O [PROPYL SALICYLATE] | > 46
38 | CC(N)Cc1ccc2c(c1)OCO2 (racemic) [(±)-3,4-Methylenedioxyamphetamine hydrochloride] | > 46
39 | COC(=O)C(Cl)C(=O)OC [Dimethyl chloromalonate] | > 46
40 | O=C(c1ccc(F)cc1)C1CCN(CCn2c(=S)[nH]c3ccccc3c2=O)CC1 [Altanserin hydrochloride] | > 46
41 | CCCCC(=O)OCC(=O)[C@H]1[C@H](C)C[C@@H]2[C@@H]3C[C@@H](F)C4=CC(=O)C=C[C@]4(C)[C@@]3(F)[C@@H](O)C[C@@]21C [DIFLUCORTOLONE VALERATE] | > 46
42 | CCN(CC)CCCC(C)Nc1cc(/C=C/c2ccccc2Cl)nc2cc(Cl)ccc12 (configuration not stated) [AMINOQUINOLUM] | > 46
43 | CCC(=O)Oc1ccc2c(c1)CCC1C2CC[C@]2(C)C(OC(=O)CC)CCC12 (some centres not stated) | > 46
44 | O=C1NCCN1CCN1CCC(c2cn(-c3ccc(F)cc3)c3ccc(Cl)cc23)CC1 [Sertindole] | > 46
45 | O=C(O)CC(O)CC(O)/C=C/c1c(C2CC2)nc2ccccc2c1-c1ccc(F)cc1 (configuration not stated) [Pitavastatin] | > 46
46 | C[C@H]1C[S+](=O)([O-])CCN1/N=C\c1ccc([N+](=O)[O-])o1 [Nifurtimox] | > 46

Row | SMILES | IC50 of cell viability [µM]
47 | CC1(C)S[C@@H]2[C@H](NC(=O)[C@H](N)c3ccccc3)C(=O)N2[C@@H]1C(=O)OCOC(=O)[C@@H]1N2C(=O)C[C@@H]2S([O-])([O-])C1(C)C [Sultamicillin tosylate] | > 46
48 | O=C(/C=C/c1cccc(F)c1)NC1CC1 [Cinflumide] | > 46
49 | CNC1(c2ccccc2Cl)CCCCC1=O (stereo in doubt) [(S)-(-)-Ketamine] | > 46
50 | NP(N)(=O)NC(=O)c1ccc(F)cc1 [Flurofamide] | > 46
51 | C[C@]12CC(=O)[C@H]3[C@@H](CC\C4=C\C(=O)\C=C/[C@]34C)[C@@H]1CC[C@]2(O)C(=O)CO [Prednisone] | > 46
52 | Cl.Nc1cc(Cl)c(N=C2NCCN2)c(Cl)c1 [p-Aminoclonidine hydrochloride] | > 46
53 | CO[C@H]1C[C@H](O[C@@H]2[C@H](C)[C@H](O[C@@H]3O[C@@H](C)C[C@@H](N(C)C)[C@H]3O)[C@H](C)C[C@]3(CO3)C(=O)[C@H](C)[C@H](O)[C@H](C)[C@H](C)OC(=O)[C@@H]2C)O[C@@H](C)[C@H]1O [Oleandomycin phosphate] | > 46
54 | COc1ccc(C(=O)NCc2ccc(OCCN(C)C)cc2)cc1OC [ITOPRIDE HYDROCHLORIDE] | > 46
55 | C[S+](=O)([O-])c1ccc([C@H](O)[C@H](CF)NC(=O)C(Cl)Cl)cc1 [Florfenicol] | > 46
56 | CN1CCc2cc(Cl)c(O)cc2[C@H]2c3ccccc3CC[C@@H]21 [ECOPIPAMUM] | > 46
57 | CCC(N)Cc1c[nH]c2ccccc12 (configuration not stated) [ETRYPTAMINUM] | > 46
58 | CC(C)C1NC(=O)[C@@H](NC(=O)C2=C3\N=C\4/C(=C(/C)C(=O)\C(=C4C(=O)N[C@H]5[C@@H](C)OC(=O)C(C(C)C)N(C)C(=O)CN(C)C(=O)[C@@H]6CCCN6C(=O)C(NC5=O)C(C)C)N)OC3=C(C)C=C2)[C@@H](C)OC(=O)C(C(C)C)N(C)C(=O)CN(C)C(=O)[C@@H]7CCCN7C1=O (some centres not stated) | > 46
59 | Nc1ccc(O)cc1 [4-Aminophenol] | > 46
60 | Cc1ncc(COP(=O)(O)O)c(C=O)c1O [PYRIDOXAL PHOSPHATE] | > 46
61 | CCNC(C)Cc1cccc(C(F)(F)F)c1 (single isomer, unassigned; (-)) [(-)-Fenfluramine] | > 46
62 | COc1cc(C)c(/C=C/C(C)=C/C=C/C(C)=C/C(=O)O)c(C)c1C [ACITRETIN] | > 46
63 | CC1(C)S[C@H]2[C@H](NC(=O)[C@@H](N)C3=CC=CC=C3)C(=O)[N@]2[C@H]1C(=O)O[C@@H]4OC(=O)C5=C4C=CC=C5 [Talampicillin hydrochloride] | > 46
64 | Cc1ccc(C(=O)[C@H](C)CN2CCCCC2)cc1 [Tolperisone HCl] | > 46
65 | CC1=NN(c2ccccc2)C(=O)C1 [1-Phenyl-3-methyl-5-pyrazolone] | > 46
66 | Cc1cccc(Nc2ccccc2C(=O)O)c1C [Mefenamic acid] | > 46
67 | CN1CCN(C(c2ccccc2)c2ccccc2)CC1 [Cyclizine hydrochloride] | > 46
